# Measured values: patent US11780843B2, “Compounds active towards nuclear receptors” (NUEVOLUTION A/S, priority 2020, dated 2023)
# Target: T1, RORγ ligand-binding domain (Homo sapiens, UniProt P51449)
# T1 construct: Gal4 (galactose-responsive transcription factor); expressed in transfected cells; host or cells: HEK293, transient co-transfection
# T1 sequence (P51449 269-508 limits assumed): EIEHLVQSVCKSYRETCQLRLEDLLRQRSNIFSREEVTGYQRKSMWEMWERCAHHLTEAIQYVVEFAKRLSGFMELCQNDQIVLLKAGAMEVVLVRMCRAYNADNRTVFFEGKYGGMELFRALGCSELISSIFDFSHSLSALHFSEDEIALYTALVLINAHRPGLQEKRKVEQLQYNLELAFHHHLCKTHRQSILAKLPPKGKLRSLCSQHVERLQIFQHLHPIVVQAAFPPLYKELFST
# Experiment: RORγ Reporter Assay (Gal4)
# Assay type: cell-based
# Conditions: HEK293 cells, luciferase reporter, 24 h incubation, absolute IC50; read-out: IC50
# Description: The HEK293 cell line is co-transfected transiently with two plasmids, one with the RORγ ligand-binding domain fused to galactose-responsive transcription factor (Ga14), and the other with the luciferase reporter gene and Gal binding sites (UAS). This construction allows to determine the RORT activity in a cellular system through the measurement of luminescence.
# A suspension of RORγ reporter cells was dispensed into plates and cultured 2 h at 37° C. and 5% CO2. Media formulation consisted in DMEM/F-12 medium (Gibco) supplemented with 10% heat inactivated FBS (Sigma-Aldrich), non-essential aminoacids (Sigma-Aldrich), 2 mM Glutamax (Gibco) and 100 U/mL penicillin (Sigma-Aldrich). Dose-response curves with compounds were prepared in 100% DMSO and further diluted 100-fold in culture medium. Compound solutions were added to the plate containing cells (final DMSO concentration of 0.1%) and incubated for 24 h at 37° C. and 5% CO2. Luciferase detection reagent was added to each well, and relative light units (RLUs) were quantified from each assay well using a plate reading luminometer.
# Values of average RLU±S.D. were computed for all treatment sets, followed by the calculations of percent-reduction of RORT activity in response to respective test compound. The following formula was used: activity=100*[1−[[…]] where the theoretical minimum reduction (0% reduction). […] These calculations were performed in excel-fit software using X-204 model curve.
row,IC50,Compound
1,> 1000 nM,"NC(=O)CN1CC[C@@H](Cn2cnc3c(N(Cc4cccc(C(F)(F)F)c4)C4CC4)ncnc32)[C@H](O)C1 (racemic) [Example P6-20, rac-2-((3R,4R)-4-((6-(cyclopropyl(3-(trifluoromethyl)benzyl)amino)-9H-purin-9-yl)methyl)-3-hydroxypiperidin-1-yl)acetamide]"
2,6.1 nM,"NC(=O)CN1CC[C@@H](Cn2ccc3c(N(Cc4ccc(C(F)(F)F)cc4)C4CC4)ncnc32)[C@H](F)C1 (single isomer, unassigned) [Example K8-2-1]"
3,3.1 nM,"NC(=O)CN1CC[C@@H](Cn2ccc3c(N(Cc4ccc(C(F)(F)F)cc4)C4CC4)ncnc32)[C@H](F)C1 (single isomer, unassigned) [Example K8-2-2]"
4,76 nM,"NC(=O)CN1CC[C@@H](Cn2ccc3c(N(Cc4ccc(C(F)(F)F)cn4)C4CC4)ncnc32)[C@H](F)C1 (single isomer, unassigned) [Example K8-3-1]"
5,22 nM,"NC(=O)CN1CC[C@@H](Cn2ccc3c(N(Cc4ccc(C(F)(F)F)cn4)C4CC4)ncnc32)[C@H](F)C1 (single isomer, unassigned) [Example K8-3-2]"
6,12 nM,"NC(=O)CN1CC[C@@H](Cn2ccc3c(N4CCOC[C@@H]4c4ccc(C(F)(F)F)cc4)ncnc32)[C@H](O)C1 (single isomer, unassigned) [Example P6-01-1, 2-((3R*,4R*)-3-hydroxy-4-((4-((S)-3-(4-(trifluoromethyl)phenyl)morpholino)-7H-pyrrolo[2,3-d]pyrimidin-7-yl)methyl)piperidin-1-yl)acetamide]"
7,25 nM,"NC(=O)CN1CC[C@@H](Cn2ccc3c(N4CCOC[C@@H]4c4ccc(C(F)(F)F)cc4)ncnc32)[C@H](O)C1 (single isomer, unassigned) [Example P6-01-2, 2-((3R*,4R*)-3-hydroxy-4-((4-((S)-3-(4-(trifluoromethyl)phenyl)morpholino)-7H-pyrrolo[2,3-d]pyrimidin-7-yl)methyl)piperidin-1-yl)acetamide]"
8,13 nM,"NC(=O)CN1CC[C@@H](Cn2ccc3c(N4CCOC[C@@H]4c4cccc(C(F)(F)F)c4)ncnc32)[C@H](O)C1 (single isomer, unassigned) [Example P6-03-1]"
9,26 nM,"NC(=O)CN1CC[C@@H](Cn2ccc3c(N4CCOC[C@@H]4c4cccc(C(F)(F)F)c4)ncnc32)[C@H](O)C1 (single isomer, unassigned) [Example P6-03-2]"
10,47 nM,"NC(=O)CN1CC[C@@H](Cn2ccc3c(N4CCOC[C@H]4c4cccc(C(F)(F)F)c4)ncnc32)[C@H](O)C1 (single isomer, unassigned) [Example P6-04-1]"
11,65 nM,"NC(=O)CN1CC[C@@H](Cn2cnc3c(N(Cc4ccc(C(F)(F)F)cc4)C4CC4)ncnc32)[C@H](O)C1 (single isomer, unassigned) [Example P6-26-1]"
12,170 nM,"NC(=O)CN1CC[C@@H](Cn2ccc3c(N4CCOC[C@@H]4c4ccc(C(F)(F)F)cn4)ncnc32)[C@H](F)C1 (single isomer, unassigned) [Example Q4-1-1, 2-((3R*,4R*)-3-fluoro-4-((4-((S)-3-(5-(trifluoromethyl)pyridin-2-yl)morpholino)-7H-pyrrolo[2,3-d]pyrimidin-7-yl)methyl)piperidin-1-yl)acetamide]"
13,250 nM,"NC(=O)CN1CC[C@@H](Cn2ccc3c(N4CCOC[C@@H]4c4ccc(C(F)(F)F)cn4)ncnc32)[C@H](F)C1 (single isomer, unassigned) [Example Q4-1-2, 2-((3R*,4R*)-3-fluoro-4-((4-((S)-3-(5-(trifluoromethyl)pyridin-2-yl)morpholino)-7H-pyrrolo[2,3-d]pyrimidin-7-yl)methyl)piperidin-1-yl)acetamide]"

# More lines, now with the values behind:
row,Compound,IC50
1,"CCN(Cc1ccc(C(F)(F)F)cc1F)c1ncnc2c1ccn2C[C@@]1(O)CCN(CC(N)=O)C[C@@H]1O (racemic) [Example L5-3-1, rac-2-((3R,4R)-4-((4-(ethyl(2-fluoro-4-(trifluoromethyl)benzyl)amino)-7H-pyrrolo[2,3-d]pyrimidin-7-yl)methyl)-3,4-dihydroxypiperidin-1-yl)acetamide]",63 nM
2,"NC(=O)CN1CC[C@@H](Cn2cc(F)c3c(N(Cc4cnc(C(F)(F)F)nc4)C4CC4)ncnc32)[C@H](O)C1 (racemic) [Example P6-17, rac-2-((3R,4R)-4-((4-(cyclopropyl((2-(trifluoromethyl)pyrimidin-5-yl)methyl)amino)-5-fluoro-7H-pyrrolo[2,3-d]pyrimidin-7-yl)methyl)-3-hydroxypiperidin-1-yl)acetamide]",43 nM
3,"CC(C)N(Cc1ccc(C(F)(F)F)cc1)c1ncnc2c1ncn2C[C@@H]1CCN(CC(N)=O)C[C@H]1O (racemic) [Example P6-22, rac-2-((3R,4R)-3-hydroxy-4-((6-(isopropyl(4-(trifluoromethyl)benzyl)amino)-9H-purin-9-yl)methyl)piperidin-1-yl)acetamide]",77 nM
4,"CCN(Cc1ccc(C#N)cc1)c1ncnc2c1ccn2C[C@@H]1CCN(CC(N)=O)C[C@H]1O (relative stereo) [P6-29″, rel-2-((3R,4R)-4-((4-((4-cyanobenzyl)(ethyl)amino)-7H-pyrrolo[2,3-d]pyrimidin-7-yl)methyl)-3-hydroxypiperidin-1-yl)acetamide]",> 1000 nM
5,"CCN(Cc1ccc(-c2cnn(C)c2)cc1)c1ncnc2c1ccn2C[C@@H]1CCN(CC(N)=O)C[C@H]1O (relative stereo) [P6-34″, rel-2-((3R,4R)-4-((4-(ethyl(4-(1-methyl-1H-pyrazol-4-yl)benzyl)amino)-7H-pyrrolo[2,3-d]pyrimidin-7-yl)methyl)-3-hydroxypiperidin-1-yl)acetamide]",12 nM
6,"CCN(Cc1ccc(-c2cnn(C)c2)cc1F)c1ncnc2c1ccn2C[C@@H]1CCN(CC(N)=O)C[C@H]1O (relative stereo) [P6-35″, rel-2-((3R,4R)-4-((4-(ethyl(2-fluoro-4-(1-methyl-1H-pyrazol-4-yl)benzyl)amino)-7H-pyrrolo[2,3-d]pyrimidin-7-yl)methyl)-3-hydroxypiperidin-1-yl)acetamide]",24 nM
7,"CCN(Cc1ccc(-n2cccn2)cc1F)c1ncnc2c1ccn2C[C@@H]1CCN(CC(N)=O)C[C@H]1O (relative stereo) [P6-36″, rel-2-((3R,4R)-4-((4-(ethyl(2-fluoro-4-(1H-pyrazol-1-yl)benzyl)amino)-7H-pyrrolo[2,3-d]pyrimidin-7-yl)methyl)-3-hydroxypiperidin-1-yl)acetamide]",14 nM
8,"CCN(Cc1ccc(-n2cccn2)cc1F)c1ncnc2c1ccn2C[C@@]1(O)CCN(CC(N)=O)C[C@@H]1O (relative stereo) [R5-5″, Rel-2-((3R,4R)-4-((4-(ethyl(2-fluoro-4-(1H-pyrazol-1-yl)benzyl)amino)-7H-pyrrolo[2,3-d]pyrimidin-7-yl)methyl)-3,4-dihydroxypiperidin-1-yl)acetamide]",15 nM
9,"NC(=O)CN1CCC(Cn2ccc3c(N(Cc4ccc(C(F)(F)F)cc4)C4CC4)ncnc32)C(F)(F)C1 (single isomer, unassigned) [Example K8-1-1]",9 nM
10,"NC(=O)CN1CCC(Cn2ccc3c(N(Cc4ccc(C(F)(F)F)cc4)C4CC4)ncnc32)C(F)(F)C1 (single isomer, unassigned) [Example K8-1-2]",4 nM
11,"NC(=O)CN1CCC(O)(Cn2cnc3c(N(Cc4ccc(C(F)(F)F)cc4)C4CC4)ncnc32)CC1 [Example 3P6-3, 2-(4-((6-(cyclopropyl(4-(trifluoromethyl)benzyl)amino)-9H-purin-9-yl)methyl)-4-hydroxypiperidin-1-yl)acetamide]",72 nM
12,"N#Cc1cn(CC2(O)CCN(CC(N)=O)CC2)c2ncnc(N(Cc3ccc(C(F)(F)F)cc3)C3CC3)c12 [Example 3P6-4, 2-(4-((5-cyano-4-(cyclopropyl(4-(trifluoromethyl)benzyl)amino)-7H-pyrrolo[2,3-d]pyrimidin-7-yl)methyl)-4-hydroxypiperidin-1-yl)acetamide]",297 nM
13,"CN(Cc1ccc(C(F)(F)F)cc1)c1ncnc2c1c(F)cn2CC1(O)CCN(CC(N)=O)CC1 [Example 3P6-5, 2-(4-((5-fluoro-4-(methyl(4-(trifluoromethyl)benzyl)amino)-7H-pyrrolo[2,3-d]pyrimidin-7-yl)methyl)-4-hydroxypiperidin-1-yl)acetamide]",87 nM

# Same assay, conditions: Table 5 b; bound estimated from % inhibition at 0.1 and/or 1 uM; read-out: RORγ Gal4 assay (based on % inhibition at 0.1 and/or 1 uM) IC50
row,IC50,Compound
1,< 100 nM,"NC(=O)Cc1ccc(Cn2ccc3c(N4CCOC[C@@H]4c4ccc(C(F)(F)F)cn4)ncnc32)cc1 [Example 328, reference compound]"
2,< 100 nM,"NC(=O)Cc1ccc(Cn2ccc3c(N(Cc4ccc(C(F)(F)F)cc4)C4CC4)ncnc32)cc1 [Example I1, reference compound]"

# Same assay, conditions: stated as a bound only (Tables 5 a, 6, 7); read-out: Gal4 assay IC50
row,IC50,Compound
1,< 500 nM,"NC(=O)CN1CC[C@@H](Cn2ccc3c(N4CCOC[C@@H]4c4ccc(C(F)(F)F)cn4)ncnc32)[C@H](F)C1 (single isomer, unassigned) [Example Q4-1-1, 2-((3R*,4R*)-3-fluoro-4-((4-((S)-3-(5-(trifluoromethyl)pyridin-2-yl)morpholino)-7H-pyrrolo[2,3-d]pyrimidin-7-yl)methyl)piperidin-1-yl)acetamide]"
2,< 100 nM,"NC(=O)Cc1ccc(Cn2ccc3c(N4CCOC[C@@H]4c4ccc(C(F)(F)F)cn4)ncnc32)cc1 [Example 328, reference compound]"
3,< 100 nM,"NC(=O)Cc1ccc(Cn2ccc3c(N(Cc4ccc(C(F)(F)F)cc4)C4CC4)ncnc32)cc1 [Example I1, reference compound]"
